Laboratory results published in article PMC5933261, “A phase 1 dose-escalation study of veliparib with bimonthly FOLFIRI in patients with advanced solid tumours” (British Journal of Cancer, 2018).

Test system: patients with advanced solid tumours
Test: Treatment-emergent adverse events (NCI CTCAE version 4.0)
Assay type: in vivo, human
Excerpt: The sample size was based on clinical justification.

[1] = veliparib plus FOLFIRI, Combined RP2D n = 31, all grades
[2] = veliparib plus FOLFIRI, Combined RP2D n = 31, grade 3/4
[3] = veliparib plus FOLFIRI, Part 1 n = 67, all grades
[4] = veliparib plus FOLFIRI, Part 1 n = 67, grade 3/4
[5] = veliparib plus FOLFIRI, Parts 2 and 3 n = 25, all grades
[6] = veliparib plus FOLFIRI, Parts 2 and 3 n = 25, grade 3/4
[7] = veliparib plus FOLFIRI, Total n = 92, all grades
[8] = veliparib plus FOLFIRI, Total n = 92, grade 3/4
[9] = veliparib plus FOLFIRI, all treated patients (92)
[10] = veliparib plus FOLFIRI, all treated patients (92), any grade

Q: For C[C@]1(c2nc3c(C(N)=O)cccc3[nH]2)CCCN1 [veliparib, Veliparib], which “Patients with TEAEs that led to death within 30 days of the last veliparib dose” value (considered not related or probably not related to veliparib and FOLFIRI) is on record?
A: Four

Q: What about the “Patients with a TEAE that led to death within 63 days after the last veliparib dose” value (disease progression, considered not related or probably not related) of the same molecule?
A: One

Q: What about the “TEAE Alopecia” value [1] of the same molecule?
A: 16 (51.6) n (%)

Q: What about the “TEAE Anaemia” value [1] of the same molecule?
A: 15 (48.3) n (%)

Q: And the “TEAE Constipation” value [1]?
A: 9 (29.0) n (%)

Q: And the “TEAE Decreased appetite” value [1]?
A: 7 (22.5) n (%)

Q: What about the “TEAE Diarrhoea” value [1] of the same molecule?
A: 17 (54.8) n (%)

Q: What about the “TEAE Fatigue” value [1] of the same molecule?
A: 13 (41.9) n (%)

Q: What about the “TEAE Nausea” value [1] of the same molecule?
A: 23 (74.1) n (%)

Q: What about the “TEAE Neutropenia” value [1] of the same molecule?
A: 25 (80.6) n (%)

Q: What about the “TEAE Vomiting” value [1] of the same molecule?
A: 14 (45.1) n (%)

Q: And the “TEAE Alopecia” value [2]?
A: 0 (0.0) n (%)

Q: And the “TEAE Anaemia” value [2]?
A: 5 (16.1) n (%)

Q: And the “TEAE Constipation” value [2]?
A: 0 (0.0) n (%)

Q: And the “TEAE Decreased appetite” value [2]?
A: 0 (0.0) n (%)

Q: And the “TEAE Diarrhoea” value [2]?
A: 5 (16.1) n (%)

Q: What about the “TEAE Fatigue” value [2] of the same molecule?
A: 0 (0.0) n (%)

Q: What about the “TEAE Nausea” value [2] of the same molecule?
A: 1 (3.2) n (%)

Q: What about the “TEAE Neutropenia” value [2] of the same molecule?
A: 17 (54.8) n (%)

Q: What about the “TEAE Vomiting” value [2] of the same molecule?
A: 1 (3.2) n (%)

Q: What about the “TEAE Alopecia” value [3] of the same molecule?
A: 31 (46.2) n (%)

Q: What about the “TEAE Anaemia” value [3] of the same molecule?
A: 27 (40.2) n (%)

Q: And the “TEAE Constipation” value [3]?
A: 18 (26.8) n (%)

Q: And the “TEAE Decreased appetite” value [3]?
A: 18 (26.8) n (%)

Q: What about the “TEAE Diarrhoea” value [3] of the same molecule?
A: 40 (59.7) n (%)

Q: And the “TEAE Fatigue” value [3]?
A: 27 (40.2) n (%)

Q: What about the “TEAE Nausea” value [3] of the same molecule?
A: 41 (61.1) n (%)

Q: And the “TEAE Neutropenia” value [3]?
A: 41 (61.1) n (%)

Q: What about the “TEAE Vomiting” value [3] of the same molecule?
A: 32 (47.7) n (%)

Q: And the “TEAE Alopecia” value [4]?
A: 0 (0.0) n (%)

Q: What about the “TEAE Anaemia” value [4] of the same molecule?
A: 7 (10.4) n (%)

Q: And the “TEAE Constipation” value [4]?
A: 1 (1.4) n (%)

Q: And the “TEAE Decreased appetite” value [4]?
A: 0 (0.0) n (%)

Q: And the “TEAE Diarrhoea” value [4]?
A: 5 (7.4) n (%)

Q: And the “TEAE Fatigue” value [4]?
A: 3 (4.4) n (%)

Q: What about the “TEAE Nausea” value [4] of the same molecule?
A: 2 (2.9) n (%)

Q: What about the “TEAE Neutropenia” value [4] of the same molecule?
A: 26 (38.8) n (%)

Q: And the “TEAE Vomiting” value [4]?
A: 3 (4.4) n (%)

Q: What about the “TEAE Alopecia” value [5] of the same molecule?
A: 9 (36.0) n (%)

Q: And the “TEAE Anaemia” value [5]?
A: 14 (56.0) n (%)

Q: And the “TEAE Constipation” value [5]?
A: 10 (40.0) n (%)

Q: And the “TEAE Decreased appetite” value [5]?
A: 13 (52.0) n (%)

Q: And the “TEAE Diarrhoea” value [5]?
A: 16 (64.0) n (%)

Q: What about the “TEAE Fatigue” value [5] of the same molecule?
A: 17 (68.0) n (%)

Q: And the “TEAE Nausea” value [5]?
A: 15 (60.0) n (%)

Q: And the “TEAE Neutropenia” value [5]?
A: 20 (80.0) n (%)

Q: What about the “TEAE Vomiting” value [5] of the same molecule?
A: 12 (48.0) n (%)

Q: And the “TEAE Alopecia” value [6]?
A: 0 (0.0) n (%)

Q: And the “TEAE Anaemia” value [6]?
A: 2 (8.0) n (%)

Q: What about the “TEAE Constipation” value [6] of the same molecule?
A: 1 (4.0) n (%)

Q: And the “TEAE Decreased appetite” value [6]?
A: 0 (0.0) n (%)

Q: What about the “TEAE Diarrhoea” value [6] of the same molecule?
A: 0 (0.0) n (%)

Q: And the “TEAE Fatigue” value [6]?
A: 0 (0.0) n (%)

Q: What about the “TEAE Nausea” value [6] of the same molecule?
A: 1 (4.0) n (%)

Q: What about the “TEAE Neutropenia” value [6] of the same molecule?
A: 13 (52.0) n (%)

Q: And the “TEAE Vomiting” value [6]?
A: 2 (8.0) n (%)

Q: What about the “TEAE Alopecia” value [7] of the same molecule?
A: 40 (43.5) n (%)

Q: What about the “TEAE Anaemia” value [7] of the same molecule?
A: 41 (44.6) n (%)

Q: And the “TEAE Constipation” value [7]?
A: 28 (30.4) n (%)

Q: What about the “TEAE Decreased appetite” value [7] of the same molecule?
A: 31 (33.6) n (%)

Q: What about the “TEAE Diarrhoea” value [7] of the same molecule?
A: 56 (60.9) n (%)

Q: What about the “TEAE Fatigue” value [7] of the same molecule?
A: 44 (47.8) n (%)

Q: And the “TEAE Nausea” value [7]?
A: 56 (60.9) n (%)

Q: And the “TEAE Neutropenia” value [7]?
A: 61 (66.3) n (%)

Q: And the “TEAE Vomiting” value [7]?
A: 44 (47.8) n (%)

Q: And the “TEAE Alopecia” value [8]?
A: 0 (0.0) n (%)

Q: What about the “TEAE Anaemia” value [8] of the same molecule?
A: 9 (9.8) n (%)

Q: What about the “TEAE Decreased appetite” value [8] of the same molecule?
A: 0 (0.0) n (%)

Q: What about the “TEAE Diarrhoea” value [8] of the same molecule?
A: 5 (5.4) n (%)

Q: What about the “TEAE Fatigue” value [8] of the same molecule?
A: 3 (3.2) n (%)

Q: What about the “TEAE Nausea” value [8] of the same molecule?
A: 3 (3.2) n (%)

Q: What about the “TEAE Neutropenia” value [8] of the same molecule?
A: 39 (42.4) n (%)

Q: And the “TEAE Vomiting” value [8]?
A: 5 (5.4) n (%)

Q: What about the “Grade 3 or 4 TEAE anaemia” value [9] of the same molecule?
A: 9.8%

Q: What about the “Grade 3 or 4 TEAE neutropenia” value [9] of the same molecule?
A: 42.4%

Q: And the “Patients who discontinued veliparib due to TEAEs” value [9]?
A: 5.4%

Q: What about the “Patients with ≥1 grade 3 or 4 TEAEs” value [9] of the same molecule?
A: 67.4%

Q: What about the “Patients with ≥1 treatment-emergent serious AEs (SAEs)” value [9] of the same molecule?
A: 38.0%

Q: What about the “Serious AE PD” value [9] of the same molecule?
A: 2.2%

Q: And the “Serious AE abdominal pain” value [9]?
A: 2.2%

Q: What about the “Serious AE dehydration” value [9] of the same molecule?
A: 2.2%

Q: And the “Serious AE febrile neutropenia” value [9]?
A: 2.2%

Q: What about the “Serious AE intestinal obstruction” value [9] of the same molecule?
A: 2.2%

Q: And the “Serious AE malignant neoplasm progression” value [9]?
A: 2.2%

Q: What about the “Serious AE nausea” value [9] of the same molecule?
A: 2.2%

Q: What about the “Serious AE pyrexia” value [9] of the same molecule?
A: 4.3%

Q: And the “Serious AE vomiting” value [9]?
A: 3.3%

Q: And the “TEAE alopecia, patients” value [10]?
A: 43.5%

Q: And the “TEAE anaemia, patients” value [10]?
A: 44.6%

Q: What about the “TEAE diarrhoea, patients” value [10] of the same molecule?
A: 60.9%

Q: And the “TEAE fatigue, patients” value [10]?
A: 47.8%

Q: What about the “TEAE nausea, patients” value [10] of the same molecule?
A: 60.9%

Q: What about the “TEAE neutropenia, patients” value [10] of the same molecule?
A: 66.3%

Q: What about the “TEAE vomiting, patients” value [10] of the same molecule?
A: 47.8%

Q: What about the “Patients who experienced one or more TEAEs” value (veliparib plus FOLFIRI, treated patients (92)) of the same molecule?
A: All treated patients
